# Measurements published in US20230286960A1, “ALLOSTERIC CHROMENONE INHIBITORS OF PHOSPHOINOSITIDE 3-KINASE (PI3K) FOR THE TREATMENT OF DISEASE” (Petra Pharma Corporation, priority 2020, published 2023).
# Columns and labels:
# [1] = target: human full length PIK3CA wild-type (p110α/p85α) (Homo sapiens (Human), UniProt P42336); assay: PI3K-alpha kinase (PIK3CA) activity, wild-type, Transcreener ADP2 FI assay; conditions: PI3K-α (PIK3CA) biochemical
# Experimental: (§1) PI3K-Alpha Kinase (PIK3CA) Activity, Wild-Type and H1047R Mutant and Determining IC50 Values for Inhibitors
# (§2) Recombinant, catalytically active human full length PIK3KA Wild-type and H1047R mutant were purchased as 1:1 complex of N-terminal 6× his tagged p110 ? (catalytic) and untagged p85 ? (regulatory subunit) from EMD Millipore Sigma (cat. no. 14-602M and 14-792M, respectively). The enzyme stocks were diluted to 5× stocks in buffer (20 mM HEPES pH 7.4, 100 mM NaCl, 0.5 mM EGTA, 0.01% triton-x-100) just before use. PIP2diC8 (Avanti Polar Lipids Inc., cat. no. 850185) or phosphoinositol-4,5-bisphosphate with phosphoserine (PIP2:PS) membrane (Thermo Fisher Scientific, cat. no. PV5100) was used as lipid substrates. PIP2diC8 lyophilized powder and PIP2:PS (1:19) membrane stock (1 mM in PIP2) were separately dissolved in milliQ water to a concentration of 250 uM and stored in −20° C. 10 mM stocks of compounds were serially diluted (3×) in neat DMSO and stored in a dessicator at room temperature. 5× compound stocks in 25% DMSO were prepared fresh from neat DMSO stocks.
# (§3) Wild-type (WT) and H1047R mutant protein, along with buffer components (except ATP), were incubated with or without compound at 27° C. for 1 h. After incubation, the reaction was initiated by the addition of 5 uL of 125 uM ATP. A typical assay mixture (25 uL) comprised 40 mM HEPES buffer, pH 7.4, 25 mM MgCl2, 0.01% v/v triton-X-100, 5% v/v DMSO, 20 mM NaCl, 1-5 nM wt or H1047R, 25 uM ATP, and 50 uM PIP2diC8 or PIP2 in membrane. The reaction was allowed to proceed until about […] (2.5 uM ADP) after which time, 10 uL of reaction mixture was quenched with 25 uL of transcreener reagent (Transcreener ADP2 FI assay kit, BellBrook labs, Cat. No. 3013). The contents were incubated at rt for 1 h and fluorescence was measured using a plate reader (Paradigm, Molecular Devices). The same assay was also run at pH 6.0 or 6.4 using MOPS buffer (Fisher BioReagents, CAS 1132-61-2). A calibration curve was generated under identical buffer conditions with varying ADP amounts. Using that, the observed fluorescence was converted to uM ADP. A plot between [ADP] and log[I] yielded the dose-response curves that enabled the calculation of IC50s.
# [2] = target: human full length PIK3CA H1047R mutant (p110α/p85α) (Homo sapiens (Human), UniProt P42336, H1047R); assay: PI3K-alpha kinase (PIK3CA) activity, H1047R mutant, Transcreener ADP2 FI assay; conditions: PI3K-α (PIK3CA) biochemical
# Experimental: as §1, §2, §3
# Chain of human full length PIK3CA H1047R mutant (p110α/p85α) (P42336 whole entry H1047R): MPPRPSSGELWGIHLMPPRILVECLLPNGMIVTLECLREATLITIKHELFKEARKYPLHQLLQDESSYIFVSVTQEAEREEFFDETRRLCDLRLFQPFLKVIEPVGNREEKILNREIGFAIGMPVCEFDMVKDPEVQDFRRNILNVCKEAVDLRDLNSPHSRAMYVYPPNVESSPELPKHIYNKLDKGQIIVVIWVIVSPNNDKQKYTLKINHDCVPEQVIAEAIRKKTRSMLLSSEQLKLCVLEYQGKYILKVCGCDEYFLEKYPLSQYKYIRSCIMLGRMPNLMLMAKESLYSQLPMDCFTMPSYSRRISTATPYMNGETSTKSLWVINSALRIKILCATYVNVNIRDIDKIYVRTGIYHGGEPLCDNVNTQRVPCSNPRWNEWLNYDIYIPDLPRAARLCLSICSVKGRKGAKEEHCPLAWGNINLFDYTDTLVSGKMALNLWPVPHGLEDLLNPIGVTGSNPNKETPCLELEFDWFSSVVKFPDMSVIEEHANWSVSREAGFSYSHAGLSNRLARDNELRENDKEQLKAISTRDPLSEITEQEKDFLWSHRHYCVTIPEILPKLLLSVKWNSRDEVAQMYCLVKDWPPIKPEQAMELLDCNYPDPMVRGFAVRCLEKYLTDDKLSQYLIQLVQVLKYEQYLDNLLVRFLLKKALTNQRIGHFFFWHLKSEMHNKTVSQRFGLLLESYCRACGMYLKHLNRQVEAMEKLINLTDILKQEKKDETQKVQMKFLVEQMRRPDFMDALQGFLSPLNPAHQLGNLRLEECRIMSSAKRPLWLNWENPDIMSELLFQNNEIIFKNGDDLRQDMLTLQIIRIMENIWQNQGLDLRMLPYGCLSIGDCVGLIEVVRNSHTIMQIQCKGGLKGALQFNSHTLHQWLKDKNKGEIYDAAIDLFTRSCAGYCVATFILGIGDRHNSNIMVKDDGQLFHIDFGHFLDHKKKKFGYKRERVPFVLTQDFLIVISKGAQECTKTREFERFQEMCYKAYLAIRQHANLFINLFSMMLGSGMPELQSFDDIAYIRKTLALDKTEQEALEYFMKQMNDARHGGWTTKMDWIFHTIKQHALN
# Chain of human full length PIK3CA H1047R mutant (p110α/p85α) (P27986 whole entry partner): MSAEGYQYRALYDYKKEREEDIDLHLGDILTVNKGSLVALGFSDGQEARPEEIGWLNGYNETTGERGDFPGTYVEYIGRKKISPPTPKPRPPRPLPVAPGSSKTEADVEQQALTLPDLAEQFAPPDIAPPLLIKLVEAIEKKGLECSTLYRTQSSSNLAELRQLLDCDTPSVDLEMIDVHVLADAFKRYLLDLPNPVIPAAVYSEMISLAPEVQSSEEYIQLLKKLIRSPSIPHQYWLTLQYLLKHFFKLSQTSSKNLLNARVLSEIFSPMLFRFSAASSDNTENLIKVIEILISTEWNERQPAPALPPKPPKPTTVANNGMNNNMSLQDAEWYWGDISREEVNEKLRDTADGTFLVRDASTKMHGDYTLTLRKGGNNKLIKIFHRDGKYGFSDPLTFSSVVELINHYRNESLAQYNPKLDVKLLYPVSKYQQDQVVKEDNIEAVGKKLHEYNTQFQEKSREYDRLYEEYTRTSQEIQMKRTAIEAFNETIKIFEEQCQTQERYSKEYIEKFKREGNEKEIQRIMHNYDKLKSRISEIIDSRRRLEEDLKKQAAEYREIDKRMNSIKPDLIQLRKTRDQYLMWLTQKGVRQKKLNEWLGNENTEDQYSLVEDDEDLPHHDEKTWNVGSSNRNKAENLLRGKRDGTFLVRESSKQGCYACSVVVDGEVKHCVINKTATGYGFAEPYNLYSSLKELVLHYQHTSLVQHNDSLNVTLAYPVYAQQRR
# Chain of human full length PIK3CA wild-type (p110α/p85α) (P42336 whole entry): as the sequence (P42336 whole entry H1047R) above, with R1047H counted along it
# Chain of human full length PIK3CA wild-type (p110α/p85α) (P27986 whole entry partner): as the sequence (P27986 whole entry partner) above
Structure (SMILES),IC50 [1] [nM],IC50 [2] [nM]
"Cc1cc(C(C)N(C)c2ccccc2C(=O)O)c2oc(N3CCC(C)(C)CC3)cc(=O)c2c1 (stereo not shown) [Example 5, 2-[1-[2-(4,4-Dimethyl-1-piperidyl)-6-methyl-4-oxo-chromen-8-yl]ethyl-methyl-amino]benzoic acid]",> 10000,> 10000
"Cc1cc(C(C)Nc2ccc(C#N)cc2C(=O)O)c2oc(N3CCC(C)(C)CC3)cc(=O)c2c1 (stereo not shown) [Example 6, 5-Cyano-2-[1-[2-(4,4-dimethyl-1-piperidyl)-6-methyl-4-oxo-chromen-8-yl]ethylamino]benzoic acid]",> 10000,< 500
"Cc1cc(C(C)Nc2cc(F)ccc2[N+](=O)[O-])c2oc(N3CCC(C)(C)CC3)cc(=O)c2c1 (stereo not shown) [Example 8, 2-(4,4-Dimethyl-1-piperidyl)-8-[1-(5-fluoro-2-nitro-anilino)ethyl]-6-methyl-chromen-4-one]",> 10000,> 10000
"Cc1cc(C(C)Nc2c(Cl)cccc2C(=O)O)c2oc(N3CCC(C)(C)CC3)cc(=O)c2c1 (stereo not shown) [Example 11, 3-Chloro-2-[1-[2-(4,4-dimethyl-1-piperidyl)-6-methyl-4-oxo-chromen-8-yl]ethylamino]benzoic acid]",> 10000,> 10000
"Cc1cc(C(C)Nc2cc3c(cc2C(=O)O)OCO3)c2oc(N3CCC(C)(C)CC3)cc(=O)c2c1 (stereo not shown) [Example 33, 6-[1-[2-(4,4-Dimethyl-1-piperidyl)-6-methyl-4-oxo-chromen-8-yl]ethylamino]-1,3-benzodioxole-5-carboxylic acid]",> 10000,> 10000
"Cc1cc(C(C)Nc2ccccc2C(=O)O)c2oc(N3CC(Cl)C3)cc(=O)c2c1 (stereo not shown) [Example 63, 2-[1-[2-(3-Chloroazetidin-1-yl)-6-methyl-4-oxo-chromen-8-yl]ethylamino]benzoic acid]",> 10000,< 500
"Cc1cc(C(C)Nc2ccccc2C(=O)O)c2oc(NCC(C)C)cc(=O)c2c1 (stereo not shown) [Example 77, 2-[1-[2-(Isobutylamino)-6-methyl-4-oxo-chromen-8-yl]ethylamino]benzoic acid]",> 10000,< 500
"Cc1cc(C(C)Nc2cccc(F)c2C(=O)O)c2oc(N3Cc4ccc(F)cc4C3)cc(=O)c2c1 (stereo not shown) [Example 238, 2-Fluoro-6-[1-[2-(5-fluoroisoindolin-2-yl)-6-methyl-4-oxo-chromen-8-yl]ethylamino]benzoic acid]",> 10000,
"Cc1cc([C@@H](C)Nc2ccc(Cl)nc2C(=O)O)c2oc(N3CCC(C)(C)CC3)cc(=O)c2c1 [Example 256, 6-Chloro-3-[[(1R)-1-[2-(4,4-dimethyl-1-piperidyl)-6-methyl-4-oxo-chromen-8-yl]lethyl]amino]pyridine-2-carboxylic acid]",< 500,< 500
"Cc1cc([C@@H](C)Nc2ccccc2C(=O)O)c2oc(N3CC(C)(c4ccccc4)C3)c(C)c(=O)c2c1 [Example 274, 2-[[(1R)-1-[3,6-Dimethyl-2-(3-methyl-3-phenyl-azetidin-1-yl)-4-oxo-chromen-8-yl]ethyl]amino]benzoic acid]",< 500,< 500
"Cc1cc([C@@H](C)Nc2ccccc2C(=O)O)c2oc(N3CC[C@H](c4ccccc4)C3)c(C)c(=O)c2c1 [Example 286, 2-[[(1R)-1-[3,6-dimethyl-4-oxo-2-[(3R)-3-phenylpyrrolidin-1-yl]chromen-8-yl]ethyl]amino]benzoic acid]",< 500,< 500
"Cc1cc(C(C)Nc2ccc(Cl)nc2C(=O)O)c2oc(N3CCC4(CC3)CC4)cc(=O)c2c1 (stereo not shown) [Example 298, 3-[1-[2-(6-Azaspiro[2.5]octan-6-yl)-6-methyl-4-oxo-chromen-8-yl]ethylamino]-6-chloro-pyridine-2-carboxylic acid]",< 500,< 500
"Cc1cc([C@@H](C)Nc2ccc(Cl)nc2C(=O)O)c2oc(N3Cc4ccccc4C3)cc(=O)c2c1 [Example 300, 6-Chloro-3-[[(1R)-1-(2-isoindolin-2-yl-6-methyl-4-oxo-chromen-8-yl)ethyl]amino]pyridine-2-carboxylic acid]",< 500,< 500
"Cc1cc([C@@H](C)Nc2ccc(Cl)nc2C(=O)O)c2oc(N3Cc4ccc5c(c4C3)OCO5)cc(=O)c2c1 [Example 301, 6-Chloro-3-[[(1R)-1-[2-(6,8-dihydro-[1,3]dioxolo[4,5-e]isoindol-7-yl)-6-methyl-4-oxo-chromen-8-yl]ethyl]amino]pyridine-2-carboxylic acid]",< 500,< 500
"Cc1cc(C(C)Nc2ccc(Cl)nc2C(=O)O)c2oc(N3CCCCC3)c(C)c(=O)c2c1 (stereo not shown) [Example 305, 6-Chloro-3-[1-[3,6-dimethyl-4-oxo-2-(1-piperidyl)chromen-8-yl]ethylamino]pyridine-2-carboxylic acid]",< 500,< 500
"Cc1cc([C@@H](C)Nc2ccc(Cl)nc2C(=O)O)c2oc(N3CCC4(CC3)CC4)c(C)c(=O)c2c1 [Example 306, 3-[[(1R)-1-[2-(6-Azaspiro[2.5]octan-6-yl)-3,6-dimethyl-4-oxo-chromen-8-yl]ethyl]amino]-6-chloro-pyridine-2-carboxylic acid]",< 500,< 500
"Cc1cc([C@@H](C)Nc2ccc(Cl)nc2C(=O)O)c2oc(N3Cc4ccc(F)cc4C3)c(C)c(=O)c2c1 [Example 308, 6-Chloro-3-[[(1R)-1-[2-(5-fluoroisoindolin-2-yl)-3,6-dimethyl-4-oxo-chromen-8-yl]ethyl]amino]pyridine-2-carboxylic acid]",< 500,< 500
"Cc1cc([C@@H](C)Nc2ccc(Cl)nc2C(=O)O)c2oc(N3CCCCC3)c(C)c(=O)c2c1 [Example 309, 6-Chloro-3-[[(1R)-1-[3,6-dimethyl-4-oxo-2-(1-piperidyl)chromen-8-yl]ethyl]amino]pyridine-2-carboxylic acid]",< 500,< 500
"Cc1cc([C@@H](C)Nc2ccc(Cl)nc2C(=O)O)c2oc(N3CCC(F)(F)CC3)c(C)c(=O)c2c1 [Example 310, 6-Chloro-3-[[(1R)-1-[2-(4,4-difluoro-1-piperidyl)-3,6-dimethyl-4-oxo-chromen-8-yl]ethyl]amino]pyridine-2-carboxylic acid]",< 500,< 500
"Cc1cc(C(C)Nc2ccc(B(O)O)cc2C(=O)O)c2oc(N3CCC(C)(C)CC3)cc(=O)c2c1 (stereo not shown) [Example 357, 5-Borono-2-[1-[2-(4,4-dimethyl-1-piperidyl)-6-methyl-4-oxo-chromen-8-yl]ethylamino]benzoic acid]",> 10000,> 10000
"Cc1cc(C(C)Nc2ccccc2C(=O)O)c2oc(N3CCC(C)CC3)cc(=O)c2c1 (stereo not shown) [Example 370, 2-[1-[6-Methyl-2-(4-methyl-1-piperidyl)-4-oxo-chromen-8-yl]ethylamino]benzoic acid]",> 10000,< 500
"CNC(=O)C1CCN(c2cc(=O)c3cc(C)cc(C(C)Nc4ccccc4C(=O)O)c3o2)CC1 (stereo not shown) [Example 371, 2-[1-[6-Methyl-2-[4-(methylcarbamoyl)-1-piperidyl]-4-oxo-chromen-8-yl]ethylamino]benzoic acid]",> 10000,
"COC1CCN(c2cc(=O)c3cc(C)cc(C(C)Nc4ccccc4C(=O)O)c3o2)CC1 (stereo not shown) [Example 373, 2-[1-[2-(4-Methoxy-1-piperidyl)-6-methyl-4-oxo-chromen-8-yl]ethylamino]benzoic acid]",> 10000,
"Cc1cc(C(C)Nc2ccccc2C(=O)O)c2oc(N3CCC4(CC3)CN(C)C(=O)O4)cc(=O)c2c1 (stereo not shown) [Example 380, 2-[1-[6-Methyl-2-(3-methyl-2-oxo-1-oxa-3,8-diazaspiro[4.5]decan-8-yl)-4-oxo-chromen-8-yl]ethylamino]benzoic acid]",> 10000,
"CC(Nc1ccc(Cl)nc1C(=O)O)c1cc(F)cc2c(=O)cc(N3Cc4ccccc4C3)oc12 (stereo not shown) [Example 400, 6-Chloro-3-[1-(6-fluoro-2-isoindolin-2-yl-4-oxo-chromen-8-yl)ethylamino]pyridine-2-carboxylic acid 2,2,2-trifluoroacetic acid]",< 500,< 500
